According to patent US11299514B2, “Antimicrobial peptide AS-hepc3(48-56) of Acanthopagrus schlegelii and method thereof” (Xiamen University, priority 2019, dated 2022):
Peptide text beside a SMILES is read from it.

What was measured:
[1] = tested on: Pseudomonas aeruginosa PAO1; assay: Comparative experiment of drug resistance (serial passage, change of MIC); format: cell-based
From the text: FIG. 1 illustrates a comparison of antimicrobial resistance of an antimicrobial peptide AS-hepc3(48-56) of Acanthopagrus schlegelii and antibiotic meropenem against Pseudomonas aeruginosa PAO1, wherein the abscissa represents time (days), and the ordinate represents a ratio of change of a minimum inhibition concentration (MIC) and an initial antimicrobial concentration.
1. Comparison of the antimicrobial peptide AS-hepc3(48-56) and antibiotic meropenem against Pseudomonas aeruginosa PAO1. Pseudomonas Aeruginosa PAO1 was purchased from the China General Microbiological Culture Collection Center, Institute of Microbiology, Chinese Academy of Sciences.
A detailed method is as follows:
(1) Preserved Pseudomonas aeruginosa PAO1 was streaked on MH plates and was cultured at 37° C. overnight;
(2) A single clone was screened and was cultured in MH liquid medium at 37° C. and 200 rpm to a logarithmic stage;
(3) The strain was corrected at 5000 g for 2 minutes, the strain was resuspended in 10 mM sodium phosphate buffer (pH=7.4), and the strain was finally diluted with a mixture of the 10 mM sodium phosphate buffer and the MH liquid medium to enable a final concentration of the stain to be 5×10^5 cfu/mL;
(4) Synthesized powder of the antimicrobial peptide AS-hepc3(48-56) was dissolved in sterile Milli-Q water, and a peptide concentration was diluted to 8 μM, 12 μM, 16 μM, 24 μM, 32 μM, 48 μM, 64 μM, or 96 μM in double ratios;
(5) Antibiotic meropenem powder was dissolved in sterile Milli-Q water to configure a 5 mg/mL reserved solution, filtered by a 0.22 μm filter membrane, and diluted to different work concentrations being 0.0625 μg/mL, 0.125 μg/mL, 0.25 μg/mL, 0.5 μg/mL, 1 μg/mL, 2 μg/mL, 4 μg/mL, 8 μg/mL, 16 μg/mL, 32 μg/mL, 48 μg/mL, 64 μg/mL, 96 μg/mL, 128 μg/mL, 192 μg/mL, 256 μg/mL, or 512 μg/mL; and
(6) On a 96-well cell culture plate, each test strain was arranged into a blank control group, a negative control group, and a test group, and three parallel groups of each test group were as follows: • a) Blank control group: 50 μL of test peptide sample and 50 μL of medium; • b) Negative control group: 50 μL of sterile Milli-Q water and 50 μL of strain suspension; and • c) Test group: 50 μL of the test peptide sample and 50 μL of the strain suspension.
The 96-well cell culture plate was placed in a 37° C. incubator and was cultured for 18-24 hours, and MIC results in the test group were observed. The strain having the maximum peptide concentration at which the growth of the strain could be observed was repeatedly diluted thousand-fold, and 50 μL was repeatedly taken for a next generation of antimicrobial experiments for 150 generations.

[2] = tested on: mouse hepatocytes (AML12); assay: in vitro; format: cell-based
From the text: (§1) FIGS. 2A and 2B illustrate cytotoxicity experimental result diagrams of antimicrobial peptide AS-hepc3(48-56) obtained by an MTS-PMS method, wherein FIG. 2A represents AML12 cells (alpha mouse liver 12 cells), FIG. 2B represents 293T cells, the abscissa represents an AS-hepc3(48-56) protein concentration (μM), and the ordinate represents a cell proliferation rate (%).
(§2) 1. Mouse hepatocytes (AML12) (mouse liver cells) and human kidney epithelial cells (293T) were selected to detect a cytotoxicity of the antimicrobial peptide AS-hepc3(48-56).
(§3) 2. A detailed method is as follows.
(§4) (6) Well-grown mouse hepatocytes (AML12) and human kidney epithelial cells (293T) were collected, a cell concentration was adjusted to 10^3-10^4 cells/mL, the cells were evenly blown, and 100 μL of strain suspension was placed in each well of a 96-well cell culture plate and was static cultured at a condition of 37° C. and […]. More than 50% of the strains were adhered to a wall.
(§5) (7) The medium is carefully sucked out, a corresponding medium comprising different concentrations (0 μM, 40 μM, or 80 μM) was added and was static cultured for 24 hours at a condition of 37° C. and […].
(§6) (8) After 20 μL of MTS-PMS solution was added and was incubated for 3 hours in the dark, an OD492 value (optical density reading at 492 nm wavelength) was detected by a microplate reader to evaluate the cytotoxicity of the antimicrobial peptide AS-hepc3(48-56).

in vitro = format: cell-based, human
From the text: as §1, §2, §3, §4, §5, §6

[3] = tested on: human kidney epithelial cells (293T); assay: in vitro; format: cell-based
From the text: as §1, §2, §3, §4, §5, §6

[4] = tested on: drug-resistant clinical Pseudomonas aeruginosa isolate QZ19124; format: cell-based; settings: P. aeruginosa QZ19124
From the text: (§7) 1. Strains were as follows: Pseudomonas aeruginosa PAO1, drug-resistant clinical Pseudomonas aeruginosa isolates QZ19121, QZ19122, QZ19123, QZ19124, and QZ19125, drug-resistant clinical Acinetobacter baumannii isolates QZ18050 and QZ18055, clinical isolation of resistant Staphylococcus aureus QZ18090 and QZ18091, drug-resistant clinical Klebsiella pneumoniae isolate QZ18106, and drug-resistant clinical Escherichia coli isolates QZ18109 and QZ18110. Pseudomonas aeruginosa PAO1 was purchased from the China General Microbiological Culture Collection Center, Institute of Microbiology, Chinese Academy of Sciences, and the clinical isolates were from the Laboratory of Second Affiliated Hospital of Fujian Medical University.
as §3
(§8) (1) Preserved strains were streaked on MH plates (Mueller-Hinton agar plates) and were cultured at 37° C. overnight;
(§9) (2) A single clone was screened and was cultured in a MH liquid medium (Mueller-Hinton agar liquid medium) at 37° C. and 200 rpm (revolutions per minute) to a logarithmic stage;
(§10) (3) The strains were collected at 5000 g (i.e., a 5000 g centrifugal force) for 2 minutes, the strains were resuspended with a 10 mM (mmol/L) sodium phosphate buffer (pH=7.4), and the strains were finally diluted with the MH liquid medium to enable a final concentration of the strains to be 5×10^5 cfu/mL;
(§11) (4) Synthesized powder of the antimicrobial peptide AS-hepc3(48-56) was dissolved in sterile Milli-Q water, and a peptide concentration (i.e., a concentration of the antimicrobial peptide AS-hepc3(48-56)) was diluted to 2 μM, 4 μM, 8 μM, 16 μM, 32 μM, or 64 μM in double ratios; and
(§12) (5) On a polypropylene sterile 96-well culture plate, each test strain was arranged into a blank control group, a negative control group, and a test group, and three parallel groups of each test group were as follows: • a) Blank control group: 50 μL of test peptide sample (i.e., the antimicrobial peptide AS-hepc3(48-56)) and 50 μL of medium (i.e., the Mueller-Hinton agar liquid medium); • b) Negative control group: 50 μL of sterile Milli-Q water and 50 μL of strain suspension; and • c) Test group: 50 μL of test peptide sample and 50 μL of the strain suspension.
(§13) The polypropylene sterile 96-well culture plate was placed in a 37° C. incubator for 18-24 hours, and MIC results in the test group were observed. After the test group was pipetted and mixed, an appropriate amount of the strain was drawn and spread on the MH plate and was cultured at 37° C. overnight, and MBC results were observed.
(§14) Annotations: MIC: minimum inhibitory concentration (μM), which is represented by a-b; a is a maximum peptide concentration at which a growth of the strain can be observed by naked eyes, and b is a minimum peptide concentration at which no growth of the strain can be observed by the naked eyes. MBC: Minimum bactericidal concentration (μM), which is a concentration that kills 99.9% of microbes.

[5] = tested on: drug-resistant clinical Pseudomonas aeruginosa isolate QZ19121; format: cell-based; settings: P. aeruginosa QZ19121
From the text: as §7, §3, §8, §9, §10, §11, §12, §13, §14

[6] = tested on: resistant Staphylococcus aureus QZ18090; format: cell-based; settings: S. aureus QZ18090
From the text: as §7, §3, §8, §9, §10, §11, §12, §13, §14

[7] = tested on: drug-resistant clinical Pseudomonas aeruginosa isolate QZ19122; format: cell-based; settings: P. aeruginosa QZ19122
From the text: as §7, §3, §8, §9, §10, §11, §12, §13, §14

[8] = tested on: drug-resistant clinical Pseudomonas aeruginosa isolate QZ19125; format: cell-based; settings: P. aeruginosa QZ19125
From the text: as §7, §3, §8, §9, §10, §11, §12, §13, §14

[9] = tested on: drug-resistant clinical Pseudomonas aeruginosa isolate QZ19123; format: cell-based; settings: P. aeruginosa QZ19123
From the text: as §7, §3, §8, §9, §10, §11, §12, §13, §14

[10] = tested on: drug-resistant clinical Klebsiella pneumoniae isolate QZ18106; format: cell-based; settings: K. pneumoniae QZ18106
From the text: as §7, §3, §8, §9, §10, §11, §12, §13, §14

[11] = tested on: drug-resistant clinical Acinetobacter baumannii isolate QZ18055; format: cell-based; settings: A. baumannii QZ18055
From the text: as §7, §3, §8, §9, §10, §11, §12, §13, §14

[12] = tested on: drug-resistant clinical Acinetobacter baumannii isolate QZ18050; format: cell-based; settings: A. baumannii QZ18050
From the text: as §7, §3, §8, §9, §10, §11, §12, §13, §14

[13] = tested on: resistant Staphylococcus aureus QZ18091; format: cell-based; settings: S. aureus QZ18091
From the text: as §7, §3, §8, §9, §10, §11, §12, §13, §14

[14] = tested on: drug-resistant clinical Escherichia coli isolate QZ18109; format: cell-based; settings: E. coli QZ18109
From the text: as §7, §3, §8, §9, §10, §11, §12, §13, §14

[15] = tested on: drug-resistant clinical Escherichia coli isolate QZ18110; format: cell-based; settings: E. coli QZ18110
From the text: as §7, §3, §8, §9, §10, §11, §12, §13, §14

[16] = tested on: Pseudomonas aeruginosa PAO1; format: cell-based
From the text: as §7, §3, §8, §9, §10, §11, §12, §13, §14

[17] = human, 293T cells (human kidney epithelial cells)
[18] = mouse, AML12 cells (mouse hepatocytes)

C[C@@H](O)[C@H]1C(=O)N2C(C(=O)O)=C(S[C@@H]3CN[C@H](C(=O)N(C)C)C3)[C@H](C)[C@H]12 [meropenem]
4 times: anti-Pseudomonas aeruginosa MIC value relative to initial MIC value ([1]; after 3 days of continuous use)
1024 times: anti-Pseudomonas aeruginosa MIC value relative to initial MIC value ([1]; after 90 days of use)
16 times: anti-Pseudomonas aeruginosa MIC value relative to initial MIC value ([1]; after 10 days of continuous use)

N=C(N)NCCC[C@H](NC(=O)[C@H](CS)NC(=O)[C@H](CCCNC(=N)N)NC(=O)[C@H](CCCNC(=N)N)NC(=O)[C@H](CCCNC(=N)N)NC(=O)[C@@H](N)CCCNC(=N)N)C(=O)N[C@@H](Cc1ccccc1)C(=O)N[C@@H](CS)C(=O)N[C@@H](CS)C(=O)O [AS-hepc3(48-56), Arg-Arg-Arg-Arg-Cys-Arg-Phe-Cys-Cys] (H-RRRRCRFCC-OH; N-terminus and C-terminus assumed)
16 µM: MBC [4] | MBC [5] | MBC [7] | MBC [8] | MBC [9] | MBC [14]
> 95%: viability at 24 h, 40 µM (in vitro; [17]) | viability at 24 h, 80 µM (in vitro; [17]) | viability at 24 h, 40 µM (in vitro; [18]) | viability at 24 h, 80 µM (in vitro; [18])
4 to 8 µM: MIC [4] | MIC [5] | MIC [6] | MIC [7] | MIC [9] | MIC [13] | MIC [14] | MIC [15] | MIC [16]
twice: anti-Pseudomonas aeruginosa MIC value relative to initial MIC value ([1]; after 150 days of continuous use)
8 µM: MBC [6] | MBC [13] | MBC [15] | MBC [16]
no cytotoxicity: cytotoxicity (in words) [2] | cytotoxicity (in words) [3]
>32 µM: MBC [10] | MIC [10] | MBC [11] | MIC [11] | MBC [12] | MIC [12]
8 to 16 µM: MIC [8]
